Experimental data as given in patent US7674938B2, “Amino alcohol derivatives, pharmaceutical compositions containing the same, and use thereof” (Kissei Pharmaceutical Co., Ltd., priority 2003, dated 2010).
pEC50: −log10 of the molar value. Like-named read-outs stand apart in the source and are kept apart here.

Key:
β1-adrenoceptor = biological target: T1, β1-adrenoceptor (Rattus norvegicus, UniProt P18090); assay: β1-adrenoceptor stimulation in isolated tissue: heart rate increment of rat atrium (Magnus method); parameters: species or system SD rat; settings: read-out: β1 receptor EC50
T1 construct: The atrium of male SD rat (body weight 250-400 g) was isolated; from tissue; host or cells: SD rat atrium
T1 sequence (P18090 whole entry): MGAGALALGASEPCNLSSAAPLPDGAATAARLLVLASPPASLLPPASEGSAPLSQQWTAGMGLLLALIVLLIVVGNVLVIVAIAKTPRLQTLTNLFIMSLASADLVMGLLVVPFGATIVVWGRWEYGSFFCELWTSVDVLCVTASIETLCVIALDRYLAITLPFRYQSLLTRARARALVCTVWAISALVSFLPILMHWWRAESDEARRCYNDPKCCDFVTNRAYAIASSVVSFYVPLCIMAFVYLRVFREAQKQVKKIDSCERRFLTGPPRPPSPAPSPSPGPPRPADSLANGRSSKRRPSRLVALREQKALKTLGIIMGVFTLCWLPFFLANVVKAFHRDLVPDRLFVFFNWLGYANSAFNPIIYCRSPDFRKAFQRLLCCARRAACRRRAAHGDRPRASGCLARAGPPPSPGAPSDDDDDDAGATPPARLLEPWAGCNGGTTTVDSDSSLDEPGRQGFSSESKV
Procedure: 2) Measurement of β1-adrenoceptor Stimulation
The atrium of male SD rat (body weight 250-400 g) was isolated and the experiment was conducted according to a Magnus method. The preparation was suspended in a Krebs-Henseleit solution maintained at 37° C. and gassed with a mixed gas of 95% O2 and 5% CO2 and stretched at a tension of 0.5 g. The myocardial contractility was outputted through an isometric force transducer and recorded on an oscillograph through a tachometer. The test compound was added cumulatively into a Magunus bath.

human β2-adrenoceptor = biological target: T2, human β2-adrenoceptor (Homo sapiens, UniProt P07550); assay: Agonistic activities on human β2-adrenoceptor (cAMP in transfected CHO cells); assay type: cell-based; settings: intrinsic activity: maximum reaction relative to isoproterenol maximum (100%)
T2 construct: expressed in transfected cells; host or cells: CHO cells
T2 sequence (P07550 whole entry): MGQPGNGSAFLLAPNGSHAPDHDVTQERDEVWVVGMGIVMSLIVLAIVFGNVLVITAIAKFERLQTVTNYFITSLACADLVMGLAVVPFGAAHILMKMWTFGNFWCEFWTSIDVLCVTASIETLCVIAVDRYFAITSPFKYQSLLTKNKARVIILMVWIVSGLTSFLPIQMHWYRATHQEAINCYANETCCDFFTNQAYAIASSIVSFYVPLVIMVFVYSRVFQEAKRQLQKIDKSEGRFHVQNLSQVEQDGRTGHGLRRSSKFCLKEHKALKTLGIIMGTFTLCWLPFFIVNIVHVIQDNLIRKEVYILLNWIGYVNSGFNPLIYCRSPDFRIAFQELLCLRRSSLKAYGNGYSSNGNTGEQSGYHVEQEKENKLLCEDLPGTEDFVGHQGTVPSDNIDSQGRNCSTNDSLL
Excerpt: (§1) 2. Measurement of Agonistic Activities on Human β1- and β2-adrenoceptors
(2) Human β2-adrenoceptor
The primer which added a restriction enzyme recognition region to 5′ end was designed on the basis of the base information that is registered with GenBank/EMBL data base as Accession No. M15169, and the clone was obtained by performance of PCR using human bladder origin cDNA as a template. The clone was inserted in top GEM-T vector and was amplified in Escherichia coli bacteria as a plasmid, and it was purified and the sequence of full length and around of insertion sequence determined by means of 310 Genetic Analyzer (ABI).
(2) Preparation of Human β2-adrenoceptor Expressed Cells
(§2) The plasmid (80 ng) for expression obtained in the previous section was transfected into […] suspended in DMEM containing 10% fetal bovine serum by means of Lipofectoamine2000. These cells were dispensed in 96 well plate by 5×10^4 cells/100 μL per well and were cultured under an atmosphere of 5% CO2 at 37° C. for 24 hours, and were used for the assay.
(§3) 3) Measurement of Agonistic Activities on Human β1- and β2-adrenoceptors
(§4) Test compounds were dissolved in 50% dimethyl sulfoxide to make a 10^−2 M solution. Then, a series of 1:10 dilutions containing a maximal dose of […] were prepared using D-PBS (−). The series were used for a testing sample to measure activity. The culture medium of CHO cells of previous section was removed and washed twice with 200 μL D-PBS (−) per well. After that, 50 μL of 3-isobutyl-1-methylxanthine (SIGMA, 1 mM) was added and leaved at rest for 5 minutes, and 50 μL of testing sample were added in them and they were incubated under an atomosphere of 5% CO2 at 37° C. for 30 minutes. cAMP concentrations accumulated in cells were reacted in cAMP-Screen and were detected by Microplate LuminometerTR717.

human β3-adrenoceptor = biological target: T3, human β3-adrenoceptor (Homo sapiens, UniProt P13945); assay: Agonistic activities on human β3-adrenoceptor (cAMP accumulation in SK-N-MC cells); assay type: cell-based; settings: for β3 receptor I.A.: intrinsic activity: maximum reaction relative to isoproterenol maximum (100%); for pEC50: read-out: β3 receptor EC50
T3 construct: SK-N-MC cells (American Type Culture Collection, 1×10^5 cell/mL) were put in 96 well plates; host or cells: SK-N-MC cells
T3 sequence (P13945 whole entry): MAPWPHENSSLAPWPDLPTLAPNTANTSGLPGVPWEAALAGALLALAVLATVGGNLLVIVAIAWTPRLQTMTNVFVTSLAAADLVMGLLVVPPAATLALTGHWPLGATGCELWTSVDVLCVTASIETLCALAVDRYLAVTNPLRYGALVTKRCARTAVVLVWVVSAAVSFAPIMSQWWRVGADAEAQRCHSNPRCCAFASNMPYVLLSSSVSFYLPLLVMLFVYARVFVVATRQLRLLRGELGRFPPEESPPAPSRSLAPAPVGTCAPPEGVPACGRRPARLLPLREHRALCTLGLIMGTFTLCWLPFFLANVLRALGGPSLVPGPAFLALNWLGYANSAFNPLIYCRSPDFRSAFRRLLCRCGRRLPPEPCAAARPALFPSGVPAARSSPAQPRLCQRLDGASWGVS
Procedure: 1. Measurement of Agonistic Activities on Human β3-adrenoceptor
Test compounds were dissolved in 50% dimethyl sulfoxide to make a 10^−2 M solution. Then, a series of 1:10 dilutions containing a maximal dose of 1×10^−4 M were prepared using D-PBS (−) (Gibco-BRL: LIFE TECHNOLOGIES). The series were used for a testing sample to measure activity. SK-N-MC cells (American Type Culture Collection, 1×10^5 cell/mL) were put in 96 well plates by 100 μL and were cultured for about 24 hours. […] After that, 20 μL of 3-isobutyl-1-methylxanthine (SIGMA, 1×10^−2 mol/L D-PBS (−) solution) and 20 μL of testing sample were added in them and they were incubated under an atmosphere of 5% CO2 at 37° C. for 30 minutes. cAMP concentrations accumulated in cells were reacted in cAMP-Screen (Applied Biosystems) and were detected by Microplate LuminometerTR717 (Applied Biosystems).

human β1-adrenoceptor = biological target: T4, human β1-adrenoceptor (Homo sapiens, UniProt P08588); assay: Agonistic activities on human β1-adrenoceptor (cAMP in transfected CHO cells); assay type: cell-based; settings: for β1 receptor I.A.: intrinsic activity: maximum reaction relative to isoproterenol maximum (100%)
T4 construct: Both ends of a domain including full length of human β1-adrenoceptor were amplified; expressed in transfected cells; host or cells: CHO cells
T4 sequence (P08588 whole entry): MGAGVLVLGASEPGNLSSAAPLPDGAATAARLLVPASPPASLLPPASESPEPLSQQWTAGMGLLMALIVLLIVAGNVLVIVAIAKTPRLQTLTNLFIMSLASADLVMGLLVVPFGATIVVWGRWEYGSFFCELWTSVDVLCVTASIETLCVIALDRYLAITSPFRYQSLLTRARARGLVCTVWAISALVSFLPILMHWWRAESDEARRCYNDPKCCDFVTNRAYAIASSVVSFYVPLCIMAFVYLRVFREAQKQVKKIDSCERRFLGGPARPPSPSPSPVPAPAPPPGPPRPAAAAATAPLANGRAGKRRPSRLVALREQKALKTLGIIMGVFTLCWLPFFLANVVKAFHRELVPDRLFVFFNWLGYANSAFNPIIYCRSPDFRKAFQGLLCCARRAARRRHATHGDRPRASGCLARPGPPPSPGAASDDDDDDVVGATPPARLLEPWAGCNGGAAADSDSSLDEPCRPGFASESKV
Excerpt: as §1
(1) Human β1-adrenoceptor
Both ends of a domain including full length of human β1-adrenoceptor were amplified on the basis of DNA base information that is registered with GenBank/EMBL data base as Accession No. J03019. DNA fragment which was amplified was inserted into a vector for cloning and amplified in Escherichia coli bacteria. The plasmid which was cloned was inserted into a vector pCI-neo (Promega) for protein expression and plasmid DNA was extracted and purified, then it was used for a preparation of the following expression cells.
(1) Preparation of Human β1-adrenoceptor Expressed Cells
as §2, with “(320” for “(80”, “expression which was” for “expression”, “DMEM (Gibco-BRL: LIFE TECHNOLOGIES)” for “DMEM”, “serum (Sanko Junyaku)” for “serum”, “Lipofectoamine2000 (Invitrogen).” for “Lipofectoamine2000.”
as §3, §4

β2-adrenoceptor = biological target: T5, β2-adrenoceptor (Rattus norvegicus, UniProt P10608); assay: β2-adrenoceptor stimulation in isolated tissue: inhibition of spontaneous contraction of pregnant rat uterus (Magnus method); parameters: species or system SD rat; settings: read-out: β2 receptor EC50
T5 construct: The uterus of pregnant SD rat (Day 21 of gestation) was isolated and longitudinal muscle strip; from tissue; host or cells: pregnant SD rat uterus, longitudinal muscle strip
T5 sequence (P10608 whole entry): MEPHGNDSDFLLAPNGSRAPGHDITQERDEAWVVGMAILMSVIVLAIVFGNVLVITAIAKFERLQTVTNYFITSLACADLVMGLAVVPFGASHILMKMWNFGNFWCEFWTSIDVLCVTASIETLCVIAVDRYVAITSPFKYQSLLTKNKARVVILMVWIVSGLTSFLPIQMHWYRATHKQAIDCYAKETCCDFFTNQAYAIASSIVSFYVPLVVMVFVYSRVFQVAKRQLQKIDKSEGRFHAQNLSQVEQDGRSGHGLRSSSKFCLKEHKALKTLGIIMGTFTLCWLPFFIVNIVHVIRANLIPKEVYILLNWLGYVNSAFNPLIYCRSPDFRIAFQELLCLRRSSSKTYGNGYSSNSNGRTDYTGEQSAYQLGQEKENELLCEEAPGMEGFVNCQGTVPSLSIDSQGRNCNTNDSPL
Procedure: 3) Measurement of β2-adrenoceptor Stimulation
The uterus of pregnant SD rat (Day 21 of gestation) was isolated and longitudinal muscle strip, which was avoided placenta attached part, about 15 mm in length and 5 mm in width was taken and the experiment was conducted according to a Magnus method. The preparation was suspended in a Locke-Ringer solution maintained at 37° C. and gassed with a mixed gas of 95% O2 and 5% CO2 and stretched at a tension of 0.5 g. Spontaneous contraction of uterus was outputted through an isometric force transducer and recorded on an oscillograph through a tachometer. The test compound was added cumulatively into a Magnus bath by every 5 minutes. Potencies were evaluated that the sum of uterine contraction for 5 minutes before the addition of test compounds was taken as a 100%, and compared with the sum of uterine contraction for 5 minutes after the addition of each concentration of test compounds. […] (R)-3′-[[2-[[2-(3-chlorophenyl)-2-hydroxyethyl]-aminoethoxy]-[1,1′-biphenyl]-3-carboxylic acid which was described in example 17 on WO99/65877 was also examined as a comparison example.

ddY mice adipocytes = assay: Lipolysis in ddY mice adipocytes (free fatty acid release); assay type: cell-based; settings: Mus musculus, Adipocyte, 2 h; read-out: Lipolysis acticity EC50 value
Procedure: Epididymal fat tissue of ddY mice (body weight 35 g) was removed and isolated to cells by collagenase (typeI, 1 mg/ml) in a culture medium (Krebs-Henseleit solution inclusive of 3% BSA, 1.2 mM CaCl2 and 25 mM HEPES but exclusive of NaHCO3; pH7.4) maintained at 37° C. After rinsing the cells in the culture medium, 50,000 cells/well were seeded in a 96-well culture plate and were incubated at 37° C. in the presence of various concentration of test compounds. Two hours later, the concentration of free fatty acid in the culture medium was measured and it was made as an index for lipolysis. The concentration of free fatty acid was measured by means of NEFA C-test wako (WAKO).
(R)-3′-[[2-[[2-(3-chlorophenyl)-2-hydroxyethyl]amino-ethoxy]-[1,1′-biphenyl]-3-carboxylic acid which was described in example 17 on WO99/65877 was also examined as a comparison example.

[1] = Transport study using human intestinal epithelium tissue (Caco-2); assay type: in vitro ADME; settings: inside (pH 6.0) to outside (pH 7.4), 37° C., read-out: permeability coefficient Caco-2 Papp
Procedure: 1) Preparation of Culture Medium.
Dulbecco's modified Eagle's medium (Invitrogen Life Technologies) containing 1% fetal bovine serum (Sanko Jyunyaku), 1% MEM-nonessential amino acids, […] L-glutamine (Invitrogen Life Technologies), 1% penicillin—streptomycin 10000 units/mL-10000 μg/mL (Invitrogen Life Technologies) was prepared and used as a culture medium.
Caco-2 cells (American Type Culture Collection) were subcultured in a culture flask containing the culture medium.
After removing the culture medium before the cell reaches confluent, Caco-2 cells were washed with Hank's balanced salt solution Ca, Mg Free (Invitrogen Life Technologies).
The culture medium in the inside and outside compartments of the Traswell chamber was removed and replaced by a buffer solution containing 10 mM MES (pH 6.0) or 10 mM HEPES (pH7.4). The medium volume in the inside and outside compartments of the chamber was made at 0.1 mL (pH 6.0) and 0.5 mL (pH 7.4), respectively. The medium of the inside compartment was replaced by a buffer solution (pH 6.0) containing test compounds. For evaluating the transport of the test compounds from the inside compartment to the outside compartment, 100 μL of the outside buffer was sampled after incubating at 37° C. for 1 hr.
The apparent permeability coefficient was calculated as the following equation. The amounts of the test compounds in the outside buffer sampled were divided by incubation time. In addition, the amounts of penetration per incubation time (second) were divided by the concentration of the added test compound and the membrane surface.
[formula] • Papp is apparent permeability coefficient. (×10^−6 cm/sec) • dQ/dt is amount of penetration per incubation time. • Co is the initial concentration. (100 μM) • A is the membrane surface area. (0.33 cm^2) • The concentrations of test compounds were determined using LC/MS/MS.

β2 receptor I.A. (human β2-adrenoceptor) [%] | β3 receptor I.A. (human β3-adrenoceptor) [%] | pEC50 (human β3-adrenoceptor) | pEC50 (human β1-adrenoceptor; CHO cells expressing human β1-adrenoceptor, cAMP, 50% of isoproterenol maximum, read-out: β1 receptor EC50) | β1 receptor I.A. (human β1-adrenoceptor) [%] | pEC50 (β2-adrenoceptor) | pEC50 (ddY mice adipocytes) | Papp at 1 h, 100 μM [1] [nm/s] | Emax (human β1-adrenoceptor; CHO, read-out: β1 receptor EC50) [%] | pEC50 (human β1-adrenoceptor; read-out: β1 receptor EC50) | Structure (SMILES) | pEC50 (β1-adrenoceptor)
15 | 41 | < 5.00 | 6.13 | 60 | < 5.00 | < 6.00 |  |  |  | O=C(O)c1cccc(-c2cccc(OCCNC[C@H](O)c3cccc(Cl)c3)c2)c1 [Comparison, reference compound] | 5.73
 |  |  |  |  |  |  | 199 |  |  | Cc1cc(C(=O)O)ccc1-c1cc(C)c(OCCN[C@@H](C)[C@H](O)c2ccc(O)cc2)c(C)c1 [Compound 3, 4′-{2-[(1S,2R)-2-Hydroxy-2-(4-hydroxyphenyl)-1-methylethyl-amino]ethoxy}-2,3′,5′-trimethylbiphenyl-4-carboxylic acid] | 
27 | 94 | 6.62 |  | 45 |  |  | 157 | < 50 |  | Cc1cc(-c2ccc(C(=O)O)c(C(C)C)c2)cc(C)c1OCCN[C@@H](C)[C@H](O)c1ccc(O)cc1 [Compound 4, 4′-{2-[(1S,2R)-2-Hydroxy-2-(4-hydroxyphenyl)-1-methylethyl-amino]ethoxy}-3-isopropyl-3′,5′-dimethylbiphenyl-4-carboxylic acid] | 
49 | 125 | 7.24 |  | 74 |  | 7.95 |  |  | 5.64 | CCCc1cc(C(=O)O)ccc1-c1cc(C)c(OCCN[C@@H](C)[C@H](O)c2ccc(O)cc2)c(C)c1 [Compound 26] | 
28 | 97 | 6.32 |  | 57 | 5.57 |  |  |  | 5.36 | CCc1cc(C(=O)O)ccc1-c1ccc(OCCN[C@@H](C)[C@H](O)c2ccc(O)cc2)cc1 [Compound 153, 2-Ethyl-4′-{(1S,2R)-2-[2-hydroxy-2-(4-hydroxyphenyl)-1-methylethylamino]ethoxy}biphenyl-4-carboxylic acid] | < 5.00
27 | 239 | 7.60 |  | 87 | 5.23 | 7.71 | 34 |  | 4.72 | CC(C)c1cc(C(=O)O)ccc1-c1ccc(OCCN[C@@H](C)[C@H](O)c2ccc(O)cc2)cc1 [Compound 156] | < 5.00
32 | 91 | 6.70 |  | 62 |  |  | 40 |  | 6.10 | CCCc1cc(C(=O)O)ccc1-c1ccc(OCCN[C@@H](C)[C@H](O)c2ccc(O)cc2)cc1 [Compound 160] | 
 | 100 |  |  |  |  |  |  |  |  | CC(C)NCC(O)c1ccc(O)c(O)c1 (centres unmarked) [Isoproterenol, reference compound] | 
